{"source": "ChEMBL document CHEMBL1201862", "about": "“PubChem BioAssay data set” (2004)", "key": {"[1]": {"assay": "inhibitors of firefly luciferase expression or activity, dose response, H4 neuroglioma cells, luminescence (AID 1990)", "assay_type": "functional, cell-based"}, "[2]": {"assay": "Luminescence Cell-Based Dose Response HTS to Identify Inhibitors of 5'UTR Stem-Loop Driven Prion Protein mRNA Translation in H4 Neuroglioblastoma Cells. [Related pubchem assays: 1827 (Project Summary), 1813 (Primary HTS)]", "assay_type": "functional"}, "[3]": {"target": "Paired box protein Pax-8 (Homo sapiens, UniProt Q06710)", "sequence (Q06710 whole entry)": "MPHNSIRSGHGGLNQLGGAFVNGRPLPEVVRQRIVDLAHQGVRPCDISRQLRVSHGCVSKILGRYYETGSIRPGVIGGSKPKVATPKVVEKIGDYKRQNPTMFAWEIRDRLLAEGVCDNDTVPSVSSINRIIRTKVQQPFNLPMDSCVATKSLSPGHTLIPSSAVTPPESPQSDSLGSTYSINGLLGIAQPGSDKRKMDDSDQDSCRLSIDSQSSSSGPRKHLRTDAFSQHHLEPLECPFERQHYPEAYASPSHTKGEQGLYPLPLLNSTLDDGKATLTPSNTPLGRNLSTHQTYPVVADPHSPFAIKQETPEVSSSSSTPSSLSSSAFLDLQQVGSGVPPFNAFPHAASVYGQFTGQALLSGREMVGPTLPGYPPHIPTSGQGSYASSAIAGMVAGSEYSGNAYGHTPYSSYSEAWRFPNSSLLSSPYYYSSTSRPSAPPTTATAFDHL", "assay": "inhibitors of PAX8-driven TPO luciferase reporter, dose response, RMG-I cells, cherry-pick (AID 687027);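 note: luciferase reporter driven by Pax8 target thyroperoxidase promoter measured by SteadyGlo luminescence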", "assay_type": "functional, cell-based"}, "[4]": {"assay": "inhibitors of SNCA 5'UTR-driven reporter translation, confirmation, H4 neuroglioma cells, luminescence (AID 1988)", "assay_type": "functional, cell-based"}, "[5]": {"assay": "Counterscreen for AddAB inhibitors: absorbance-based bacterial cell-based high throughput dose response assay for inhibitors of bacterial viability. [Related pubchem assays (depositor defined):AID435030, AID449728, AID449731, AID488942, AID488955, AID488956]", "assay_type": "functional"}, "[6]": {"assay": "miR-122 activators in hepatoma reporter cells, dose response, cell-based, Huh7 psiCHECK-miR122, Renilla luciferase, cherry-picked (AID 651956);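 note: huh7 hepatoma cells stably carrying a psiCHECK-2 miR-122 sensor plasmid; renilla luciferase signal reporting endogenous miR-122 activity after 48 h compound exposure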", "assay_type": "functional"}, "[7]": {"target": "T1, Replicative DNA helicase DnaB (Mycobacterium tuberculosis, UniProt P9WMR3)", "T1 sequence (P9WMR3 whole entry)": "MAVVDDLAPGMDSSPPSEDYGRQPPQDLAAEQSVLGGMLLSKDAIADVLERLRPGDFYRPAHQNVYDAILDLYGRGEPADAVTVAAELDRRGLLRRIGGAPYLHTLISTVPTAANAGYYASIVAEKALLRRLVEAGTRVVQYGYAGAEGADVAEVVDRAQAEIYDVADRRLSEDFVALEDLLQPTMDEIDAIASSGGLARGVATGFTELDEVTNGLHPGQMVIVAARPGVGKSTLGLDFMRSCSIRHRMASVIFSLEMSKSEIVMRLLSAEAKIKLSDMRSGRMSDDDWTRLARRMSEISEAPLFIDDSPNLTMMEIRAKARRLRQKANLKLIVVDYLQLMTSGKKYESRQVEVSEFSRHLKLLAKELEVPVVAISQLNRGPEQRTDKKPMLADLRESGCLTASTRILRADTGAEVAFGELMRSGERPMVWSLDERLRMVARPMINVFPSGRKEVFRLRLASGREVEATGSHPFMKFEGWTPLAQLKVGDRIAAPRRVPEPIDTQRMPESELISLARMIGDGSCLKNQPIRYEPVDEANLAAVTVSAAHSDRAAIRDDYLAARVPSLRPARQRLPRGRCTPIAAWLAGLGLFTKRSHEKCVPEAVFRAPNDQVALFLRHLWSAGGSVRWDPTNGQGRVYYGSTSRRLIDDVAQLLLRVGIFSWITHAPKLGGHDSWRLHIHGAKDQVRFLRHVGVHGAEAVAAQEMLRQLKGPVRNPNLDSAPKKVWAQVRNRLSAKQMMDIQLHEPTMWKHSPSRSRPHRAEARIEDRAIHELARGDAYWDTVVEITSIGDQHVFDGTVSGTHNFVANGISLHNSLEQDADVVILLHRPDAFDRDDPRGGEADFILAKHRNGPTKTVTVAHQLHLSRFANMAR", "assay": "DnaB intein splicing inhibitors, dose response, biochemical, cell-free fluorescence (AID 449749)", "assay_type": "functional"}, "[8]": {"assay": "Fluorescence-based cell-based high throughput dose response assay for inhibitors of the interaction of nucleotide-binding oligomerization domain containing 2 (NOD2) and the receptor-interacting serine-threonine kinase 2 (RIPK2).", "assay_type": "functional", "conditions": "Homo sapiens"}, "[9]": {"target": "T2, Voltage-gated N-type calcium channel alpha-1B subunit/Amyloid beta A4 precursor protein-binding family A member 1 (Homo sapiens, UniProt Q00975+Q02410)", "T2 sequence (Q00975 whole entry)": "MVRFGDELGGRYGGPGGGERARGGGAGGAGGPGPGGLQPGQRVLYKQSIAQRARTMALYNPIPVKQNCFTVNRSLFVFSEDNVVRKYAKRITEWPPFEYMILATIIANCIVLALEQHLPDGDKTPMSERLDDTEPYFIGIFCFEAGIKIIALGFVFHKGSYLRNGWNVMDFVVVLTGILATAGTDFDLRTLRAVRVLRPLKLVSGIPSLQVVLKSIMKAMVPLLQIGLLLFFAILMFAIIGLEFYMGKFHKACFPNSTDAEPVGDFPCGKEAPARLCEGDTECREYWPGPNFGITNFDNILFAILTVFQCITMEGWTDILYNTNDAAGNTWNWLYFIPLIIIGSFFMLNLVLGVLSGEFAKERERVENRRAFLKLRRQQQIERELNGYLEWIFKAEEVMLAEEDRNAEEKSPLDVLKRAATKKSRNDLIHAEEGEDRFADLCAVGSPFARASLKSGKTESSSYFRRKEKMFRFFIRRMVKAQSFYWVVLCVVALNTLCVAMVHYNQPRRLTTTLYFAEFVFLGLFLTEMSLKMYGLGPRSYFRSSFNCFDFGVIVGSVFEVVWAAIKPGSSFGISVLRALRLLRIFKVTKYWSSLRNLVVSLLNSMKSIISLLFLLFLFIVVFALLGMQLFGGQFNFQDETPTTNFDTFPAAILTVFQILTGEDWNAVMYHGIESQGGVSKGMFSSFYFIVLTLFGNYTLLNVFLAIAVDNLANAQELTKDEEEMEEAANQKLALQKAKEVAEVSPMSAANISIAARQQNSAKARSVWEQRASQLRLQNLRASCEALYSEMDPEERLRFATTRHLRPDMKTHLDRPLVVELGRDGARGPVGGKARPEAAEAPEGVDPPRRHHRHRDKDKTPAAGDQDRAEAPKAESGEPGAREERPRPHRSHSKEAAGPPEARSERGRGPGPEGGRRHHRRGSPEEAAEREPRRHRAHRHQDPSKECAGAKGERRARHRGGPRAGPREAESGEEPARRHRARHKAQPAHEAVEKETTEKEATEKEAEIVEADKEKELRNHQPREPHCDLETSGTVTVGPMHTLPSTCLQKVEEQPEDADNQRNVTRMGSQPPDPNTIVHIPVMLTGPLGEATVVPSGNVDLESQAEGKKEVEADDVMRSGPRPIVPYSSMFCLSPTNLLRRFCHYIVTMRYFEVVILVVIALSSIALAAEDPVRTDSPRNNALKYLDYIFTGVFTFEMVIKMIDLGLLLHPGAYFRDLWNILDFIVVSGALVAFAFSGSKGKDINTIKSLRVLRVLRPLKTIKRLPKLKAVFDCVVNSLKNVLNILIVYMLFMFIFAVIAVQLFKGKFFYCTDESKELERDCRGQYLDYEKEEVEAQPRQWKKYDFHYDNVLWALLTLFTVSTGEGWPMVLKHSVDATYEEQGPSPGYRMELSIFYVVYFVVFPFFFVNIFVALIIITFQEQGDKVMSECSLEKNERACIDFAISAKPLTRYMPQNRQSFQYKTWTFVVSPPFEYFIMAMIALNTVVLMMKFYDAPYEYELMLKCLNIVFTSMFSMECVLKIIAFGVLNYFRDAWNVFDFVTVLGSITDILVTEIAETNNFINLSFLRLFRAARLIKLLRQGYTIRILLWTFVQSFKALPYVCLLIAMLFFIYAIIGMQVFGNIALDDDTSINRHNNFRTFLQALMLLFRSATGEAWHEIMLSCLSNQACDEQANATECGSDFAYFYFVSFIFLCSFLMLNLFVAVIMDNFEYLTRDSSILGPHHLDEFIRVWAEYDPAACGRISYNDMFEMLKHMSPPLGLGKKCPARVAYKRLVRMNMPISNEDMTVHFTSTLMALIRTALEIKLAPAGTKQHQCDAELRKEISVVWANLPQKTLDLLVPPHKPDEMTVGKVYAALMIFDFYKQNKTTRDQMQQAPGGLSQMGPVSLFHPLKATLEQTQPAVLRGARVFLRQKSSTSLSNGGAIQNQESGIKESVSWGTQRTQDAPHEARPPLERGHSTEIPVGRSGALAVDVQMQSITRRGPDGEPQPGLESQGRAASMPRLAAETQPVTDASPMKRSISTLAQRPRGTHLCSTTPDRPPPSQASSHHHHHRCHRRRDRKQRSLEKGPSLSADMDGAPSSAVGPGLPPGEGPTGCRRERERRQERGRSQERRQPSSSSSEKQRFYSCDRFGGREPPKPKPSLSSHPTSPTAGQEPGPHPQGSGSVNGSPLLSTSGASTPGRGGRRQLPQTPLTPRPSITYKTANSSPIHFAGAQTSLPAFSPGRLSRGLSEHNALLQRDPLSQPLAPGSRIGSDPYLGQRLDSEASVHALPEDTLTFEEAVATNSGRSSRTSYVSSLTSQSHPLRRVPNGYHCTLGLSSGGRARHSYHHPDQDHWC", "T2 sequence (Q02410 whole entry)": "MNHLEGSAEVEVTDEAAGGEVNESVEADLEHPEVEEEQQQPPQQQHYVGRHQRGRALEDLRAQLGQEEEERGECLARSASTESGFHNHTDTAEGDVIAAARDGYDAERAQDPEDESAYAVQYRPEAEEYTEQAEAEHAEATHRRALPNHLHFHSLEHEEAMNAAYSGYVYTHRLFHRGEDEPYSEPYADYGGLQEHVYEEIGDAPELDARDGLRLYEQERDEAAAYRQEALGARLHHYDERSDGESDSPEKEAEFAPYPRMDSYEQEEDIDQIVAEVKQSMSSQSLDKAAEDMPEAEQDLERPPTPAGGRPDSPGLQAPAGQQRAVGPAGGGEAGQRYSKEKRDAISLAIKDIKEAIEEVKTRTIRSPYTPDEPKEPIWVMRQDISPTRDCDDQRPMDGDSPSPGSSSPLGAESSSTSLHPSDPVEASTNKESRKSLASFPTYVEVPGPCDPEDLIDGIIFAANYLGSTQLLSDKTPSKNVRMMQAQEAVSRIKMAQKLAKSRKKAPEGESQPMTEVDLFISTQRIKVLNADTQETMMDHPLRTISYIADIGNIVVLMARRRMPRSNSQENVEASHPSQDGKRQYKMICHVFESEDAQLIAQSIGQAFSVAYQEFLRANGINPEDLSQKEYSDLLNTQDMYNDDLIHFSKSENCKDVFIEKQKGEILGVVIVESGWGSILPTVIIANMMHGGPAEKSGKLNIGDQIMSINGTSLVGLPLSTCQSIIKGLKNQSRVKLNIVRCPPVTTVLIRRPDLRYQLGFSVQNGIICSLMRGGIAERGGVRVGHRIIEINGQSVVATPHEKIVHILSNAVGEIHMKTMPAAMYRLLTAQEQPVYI", "assay_type": "protein assay"}, "[10]": {"target": "Apoptotic protease-activating factor 1 (Homo sapiens, UniProt O14727)", "assay_type": "functional"}, "[11]": {"target": "T3, SUMO-activating enzyme (Homo sapiens, UniProt Q9UBT2)", "T3 sequence (Q9UBE0 whole entry)": "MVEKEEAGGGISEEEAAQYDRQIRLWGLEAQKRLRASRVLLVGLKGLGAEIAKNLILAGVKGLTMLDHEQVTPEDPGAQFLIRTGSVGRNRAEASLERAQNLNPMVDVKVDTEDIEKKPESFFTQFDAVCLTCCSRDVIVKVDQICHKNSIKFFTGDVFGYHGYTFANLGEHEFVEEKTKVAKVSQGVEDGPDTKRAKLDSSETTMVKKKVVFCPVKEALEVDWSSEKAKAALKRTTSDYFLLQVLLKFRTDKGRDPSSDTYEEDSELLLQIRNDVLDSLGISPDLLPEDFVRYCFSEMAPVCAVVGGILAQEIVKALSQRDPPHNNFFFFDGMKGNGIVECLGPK", "T3 sequence (Q9UBT2 whole entry)": "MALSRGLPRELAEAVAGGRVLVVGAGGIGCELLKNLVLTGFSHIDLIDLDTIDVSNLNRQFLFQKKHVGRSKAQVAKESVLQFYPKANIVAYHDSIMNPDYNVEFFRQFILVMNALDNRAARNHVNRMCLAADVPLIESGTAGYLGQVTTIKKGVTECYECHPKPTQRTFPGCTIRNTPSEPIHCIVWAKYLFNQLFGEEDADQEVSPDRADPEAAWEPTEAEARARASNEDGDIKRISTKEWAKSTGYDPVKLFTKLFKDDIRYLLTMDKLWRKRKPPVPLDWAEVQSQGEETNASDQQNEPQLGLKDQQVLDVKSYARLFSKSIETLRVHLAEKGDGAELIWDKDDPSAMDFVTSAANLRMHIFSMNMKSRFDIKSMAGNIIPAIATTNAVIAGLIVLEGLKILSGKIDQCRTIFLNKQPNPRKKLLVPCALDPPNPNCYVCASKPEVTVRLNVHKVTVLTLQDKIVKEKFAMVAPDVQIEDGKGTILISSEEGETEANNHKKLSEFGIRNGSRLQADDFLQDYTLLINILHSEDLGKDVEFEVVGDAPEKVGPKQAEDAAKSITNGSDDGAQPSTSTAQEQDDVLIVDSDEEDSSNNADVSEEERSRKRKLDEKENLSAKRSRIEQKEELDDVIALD", "assay": "SUMOylation inhibitor hit validation, confirmation, SUMOylation inhibitor project, biochemical, AlphaScreen (AID 2018)", "assay_type": "functional"}, "[12]": {"target": "T4, Sentrin-specific protease 8 (Homo sapiens, UniProt Q96LD8)", "T4 sequence (Q96LD8 whole entry)": "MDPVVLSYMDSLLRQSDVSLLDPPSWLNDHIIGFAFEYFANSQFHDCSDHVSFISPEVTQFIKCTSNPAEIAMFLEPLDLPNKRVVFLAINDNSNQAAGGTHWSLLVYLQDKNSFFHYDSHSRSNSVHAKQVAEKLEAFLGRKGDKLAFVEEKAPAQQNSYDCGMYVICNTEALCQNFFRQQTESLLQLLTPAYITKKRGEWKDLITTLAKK", "assay_type": "functional"}, "[13]": {"target": "T3, SUMO-activating enzyme", "assay": "inhibitors of in vitro SUMOylation cascade, primary screen, biochemical, HTRF, uHTS (AID 2006)", "assay_type": "protein-complex assay"}, "[14]": {"target": "T5, RNA-binding protein pos-1 (Caenorhabditis elegans, UniProt G5EF15)", "T5 sequence (G5EF15 whole entry)": "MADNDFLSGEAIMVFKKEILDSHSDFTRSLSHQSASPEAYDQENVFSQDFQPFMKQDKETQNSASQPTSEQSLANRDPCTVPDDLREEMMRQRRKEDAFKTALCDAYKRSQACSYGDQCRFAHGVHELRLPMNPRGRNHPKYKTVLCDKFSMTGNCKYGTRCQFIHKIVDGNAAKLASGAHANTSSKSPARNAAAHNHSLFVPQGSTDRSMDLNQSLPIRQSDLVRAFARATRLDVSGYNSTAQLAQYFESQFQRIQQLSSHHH", "assay": "inhibitors of POS-1/mex-3 RNA binding, dose response, biochemical, fluorescence polarization (AID 1964);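 note: purified POS-1 fused to maltose binding protein made in E. coli; potency of compounds blocking POS-1 binding to fluorescent RNA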"}, "[15]": {"target": "T2, Voltage-gated N-type calcium channel alpha-1B subunit/Amyloid beta A4 precursor protein-binding family A member 1", "assay_type": "protein assay", "remark": "listed apart in the source"}, "[16]": {"target": "T4, Sentrin-specific protease 8", "assay_type": "functional", "remark": "listed apart in the source"}, "[17]": {"target": "Albumin (Bos taurus, UniProt P02769)", "assay": "Counterscreen for inhibitors of T-cell receptor (TCR)-CD3 interaction: Fluorescence-based biochemical high throughput dose response assay to identify inhibitors of T-cell receptor (TCR)-CD3 interaction using a TAMRA-labeled BSA probe.", "assay_type": "functional"}, "[18]": {"assay": "cells", "assay_type": "functional, cell-based"}, "[19]": {"assay": "cells", "assay_type": "functional, cell-based", "remark": "listed apart in the source"}}, "note": "Calls of active or inactive are those of the source.", "data": [{"smiles": "O=C(Nc1cccc(NC(=O)c2ccccc2Cl)c1)c1ccc([N+](=O)[O-])o1", "values": [{"measurement": "EC50", "setting": "[1]", "value": "8.33 µM (active)"}, {"measurement": "EC50", "setting": "[2]", "value": "9.73 µM (active)"}, {"measurement": "AC50", "setting": "[3]", "value": "2.48 µM (active)"}, {"measurement": "EC50", "setting": "[4]", "value": "8.12 µM (active)"}, {"measurement": "IC50", "setting": "[5]", "value": "> 119 µM (inactive)"}]}, {"smiles": "COc1ccc(CC2=CC(=O)c3ccccc3C2=O)cc1", "values": [{"measurement": "AC50", "setting": "[6]", "value": "20.7 µM (active)"}, {"measurement": "AC50", "setting": "[7]", "value": "7.49 µM (active)"}, {"measurement": "IC50", "setting": "[8]", "value": "4.12 µM (active)"}]}, {"smiles": "c1coc(-c2nnc(-c3ccco3)nn2)c1", "values": [{"measurement": "IC50", "setting": "[9]", "value": "17.7 µM (active)"}, {"measurement": "IC50", "setting": "[10]", "value": "15.8 µM (active)"}, {"measurement": "IC50", "setting": "[11]", "value": "0.99 µM (active)"}, {"measurement": "IC50", "setting": "[12]", "value": "5.41 µM (active)"}, {"measurement": "IC50", "setting": "[13]", "value": "6.47 µM (active)"}, {"measurement": "EC50", "setting": "[14]", "value": "7.92 µM (inconclusive)"}, {"measurement": "IC50", "setting": "[15]", "value": "1.66 µM (active)"}, {"measurement": "AC50", "setting": "[7]", "value": "5.79 µM (active)"}, {"measurement": "IC50", "setting": "[16]", "value": "9.28 µM (active)"}]}, {"smiles": "Cn1c(O)c(/C=N/NC(=O)c2cc3ccccc3cc2O)c2ccccc21", "values": [{"measurement": "IC50", "setting": "[17]", "value": "> 94.1 µM (inactive)"}, {"measurement": "EC50", "setting": "[18]", "value": "4.07 µM (active)"}, {"measurement": "EC50", "setting": "[19]", "value": "128 µM (active)"}, {"measurement": "IC50", "setting": "[5]", "value": "> 119 µM (inactive)"}]}]}
